What is called IC50 is the concentration that gives 50% inhibition.

Results on 38 compounds are retold here after patent US20250025443A1, “COMPOUNDS AND METHODS FOR TREATING CORONA VIRUSES” (CLEAR CREEK BIO, INC., priority 2021, published 2025).

The assay concerns the target SARS-CoV-2 Papain-Like Protease (PLpro) (Severe acute respiratory syndrome coronavirus 2 (2019-nCoV) (SARS-CoV-2), UniProt P0DTD1). The assay can be described thus: biochemical.
[1] abbreviates: SARS-CoV-2 PLpro enzymatic fluorescence assay, read-out: PLpro IC50.
[2] abbreviates: PLpro enzymatic fluorescence assay, class symbols, read-out: PLpro IC50.

Like-named read-outs stand apart in the source and are kept apart here.

Consider `Cc1ccc(C2=CCNC2)cc1C(=O)NC1(c2cccc3ccccc23)CC1` [Compound 398, 5-(2,5-Dihydro-1H-pyrrol-3-yl)-2-methyl-N-(1-(naphthalen-1-yl)cyclopropyl)benzamide], for which the IC50 under setting [1] was under 100 nM.

The compound `Cc1ccc(C2=CCNCC2)cc1C(=O)NC1(c2cccc3ccccc23)CC1` [Compound 399, 2-Methyl-N-(1-(naphthalen-1-yl)cyclopropyl)-5-(1,2,3,6-tetrahydropyridin-4-yl)benzamide] had a half-inhibitory concentration (IC50) (PLpro IC50, SARS-CoV-2 PLpro enzymatic fluorescence assay) of under 100 nM.

Take `COCC(N)COc1ccc(C)c(C(=O)NC2(c3cccc4ccccc34)CC2)c1` (centres unmarked) [Compound 400, 5-(2-Amino-3-methoxypropoxy)-2-methyl-N-(1-(naphthalen-1-yl)cyclopropyl)benzamide]: the IC50 under setting [1] was under 100 nM.

With `Cc1cc(C2(NC(=O)c3cc(OCCN(C)C)ccc3C)CC2)c2ccccc2c1` [Compound 401, 5-(2-(Dimethylamino)ethoxy)-2-methyl-N-(1-(3-methylnaphthalen-1-yl)cyclopropyl)benzamide], the IC50 under setting [1] was under 100 nM.

As for `Cc1ccc(OCC2CCN2C)cc1C(=O)NC1(c2cccc3cnccc23)CC1` (centres unmarked) [Compound 402, N-(1-(Isoquinolin-5-yl)cyclopropyl)-2-methyl-5-((1-methylazetidin-2-yl)methoxy)benzamide], the IC50 under setting [1] was under 100 nM.

Turning to `Cc1nc2cccc(C3(NC(=O)c4cc(OCCN(C)C)ccc4C)CC3)c2s1` [Compound 403, 5-(2-(Dimethylamino)ethoxy)-2-methyl-N-(1-(2-methylbenzo[d]thiazol-7-yl)cyclopropyl)benzamide], the concentration for half-maximal inhibition (IC50) under setting [1] lay within 100 to 1000 nM.

Turning to `Cc1ccc(OCC2(C)CCN2C)cc1C(=O)NC1(c2cccc3ccccc23)CC1` (centres unmarked) [Compound 404, 5-((1,2-Dimethylazetidin-2-yl)methoxy)-2-methyl-N-(1-(naphthalen-1-yl)cyclopropyl)benzamide], the IC50 under setting [1] was under 100 nM.

For the compound `Cc1cc(C)c(C(=O)NC2(c3cccc4ccccc34)CC2)cc1OCCN(C)C` [Compound 405, 5-(2-(Dimethylamino)ethoxy)-2,4-dimethyl-N-(1-(naphthalen-1-yl)cyclopropyl)benzamide], the IC50 under setting [1] was under 100 nM.

Take `Cc1ccc(C2CCNCC2)cc1C(=O)NC1(c2cccc3ccccc23)CC1` [Compound 407, 2-Methyl-N-(1-(naphthalen-1-yl)cyclopropyl)-5-(piperidin-4-yl)benzamide]: the IC50 under setting [1] was under 100 nM.

For the compound `CCSc1cc(C2(NC(=O)c3cc(OCCN(C)C)ccc3C)CC2)c2ccccc2c1` [Compound 408, 5-(2-(Dimethylamino)ethoxy)-N-(1-(3-(ethylthio)naphthalen-1-yl)cyclopropyl)-2-methylbenzamide], under setting [1], the IC50 was under 100 nM.

As to `Cc1ccc(OCCN(C)C)cc1C(=O)NC1(c2cncc3ccccc23)CC1` [Compound 409, 5-(2-(Dimethylamino)ethoxy)-N-(1-(isoquinolin-4-yl)cyclopropyl)-2-methylbenzamide], the IC50 under setting [1] was under 100 nM.

For `Cc1ccc(N2CCNCC2)cc1C(=O)NC1(c2cccc3ccccc23)CC1` [Compound 410, 2-Methyl-N-(1-(naphthalen-1-yl)cyclopropyl)-5-(piperazin-1-yl)benzamide], the IC50 under setting [1] was under 100 nM.

For `Cc1ccc(N2CCCNCC2)cc1C(=O)NC1(c2cccc3ccccc23)CC1` [Compound 411, 5-(1,4-Diazepan-1-yl)-2-methyl-N-(1-(naphthalen-1-yl)cyclopropyl)benzamide], the IC50 under setting [1] was under 100 nM.

Turning to `Cc1ccc(NCCN(C)C)cc1C(=O)NC1(c2cccc3ccccc23)CC1` [Compound 412], the IC50 under setting [1] was under 100 nM.

On to `Cc1ccc(C2CCNC2)cc1C(=O)NC1(c2cccc3ccccc23)CC1` (centres unmarked) [Compound 413, 2-Methyl-N-(1-(naphthalen-1-yl)cyclopropyl)-5-(pyrrolidin-3-yl)benzamide], for which the IC50 under setting [1] was under 100 nM.

As to `Cc1ccc(OC[C@H]2C[C@H](O)CN2)cc1C(=O)NC1(c2cccc3ccccc23)CC1` [Compound 414, 5-(((2R,4S)-4-Hydroxypyrrolidin-2-yl)methoxy)-2-methyl-N-(1-(naphthalen-1-yl)cyclopropyl)benzamide], under setting [1], the IC50 was under 100 nM.

Regarding `Cc1ccc(OCCN(C)C)cc1C(=O)NC1(c2cccc3[nH]c4ccccc4c23)CC1` [Compound 415, N-(1-(9H-Carbazol-4-yl)cyclopropyl)-5-(2-(dimethylamino)ethoxy)-2-methylbenzamide], the concentration for half-maximal inhibition (IC50) under setting [1] lay in the range of 100 to 1000 nM.

For the compound `Cc1ccc(OCCN(C)C)cc1C(=O)NC1(c2cccc3ccc(O)cc23)CC1` [Compound 417, 5-(2-(Dimethylamino)ethoxy)-N-(1-(7-hydroxynaphthalen-1-yl)cyclopropyl)-2-methylbenzamide], under setting [1], the IC50 was under 100 nM.

With `Cc1ccc(N2CCN(C)CC2)cc1C(=O)NC1(c2cccc3ccccc23)CC1` [Compound 418, 2-Methyl-5-(4-methylpiperazin-1-yl)-N-(1-(naphthalen-1-yl)cyclopropyl)benzamide], the IC50 under setting [1] was under 100 nM.

In the case of `COc1cc(C2(NC(=O)c3cc(OC[C@@H]4CCCN4)ccc3C)CC2)c2ccccc2c1` [Compound 419, (S)-N-(1-(3-Methoxynaphthalen-1-yl)cyclopropyl)-2-methyl-5-(pyrrolidin-2-ylmethoxy)benzamide], the IC50 under setting [1] is under 100 nM.

As for `Cc1ccc(OCCN(C)C)cc1C(=O)NC1(c2cc(-c3cccs3)cc3ccccc23)CC1` [Compound 420, 5-(2-(Dimethylamino)ethoxy)-2-methyl-N-(1-(3-(thiophen-2-yl)naphthalen-1-yl)cyclopropyl)benzamide], the IC50 under setting [1] was under 100 nM.

In the case of `Cc1ccc(N(C)CCN(C)C)cc1C(=O)NC1(c2cccc3ccccc23)CC1` [Compound 421], under setting [1], the half-maximal inhibitory concentration (IC50) is under 100 nM.

On to `CC[S+]([O-])c1cc(C2(NC(=O)c3cc(OCCN(C)C)ccc3C)CC2)c2ccccc2c1` (centres unmarked) [Compound 423, 5-(2-(Dimethylamino)ethoxy)-N-(1-(3-(ethylsulfinyl)naphthalen-1-yl)cyclopropyl)-2-methylbenzamide], for which the half-inhibitory concentration (IC50) under setting [1] is under 100 nM.

In the case of `Cc1ccc(OCCNS(C)(=O)=O)cc1C(=O)NC1(c2cccc3ccccc23)CC1` [Compound 424, 2-Methyl-5-(2-(methylsulfonamido)ethoxy)-N-(1-(naphthalen-1-yl)cyclopropyl)benzamide], the IC50 under setting [1] lay in the range of 100 to 1000 nM.

`CC(=O)NCCOc1ccc(C)c(C(=O)NC2(c3cccc4ccccc34)CC2)c1` [Compound 425, 5-(2-Acetamidoethoxy)-2-methyl-N-(1-(naphthalen-1-yl)cyclopropyl)benzamide]: the IC50 under setting [1] is 100 to 1000 nM.

On to `CNCc1nc2cc(C)c(C(=O)NC3(c4cccc5ccccc45)CC3)cc2o1` [Compound 426, 5-Methyl-2-((methylamino)methyl)-N-(1-(naphthalen-1-yl)cyclopropyl)benzo[d]oxazole-6-carboxamide], for which the IC50 under setting [1] is 100 to 1000 nM.

Consider `Cc1ccc(OCC2CN(C)C2)cc1C(=O)NC1(c2cccc3ccccc23)CC1` [Compound 427, 2-Methyl-5-((1-methylazetidin-3-yl)methoxy)-N-(1-(naphthalen-1-yl)cyclopropyl)benzamide], for which, under setting [2], the IC50 is under 100 nM.

As for `COC(=O)CCc1ccc(C)c(C(=O)NC2(c3cccc4ccccc34)CC2)c1` [Compound 431, Methyl 3-(4-methyl-3-((1-(naphthalen-1-yl)cyclopropyl)carbamoyl)phenyl) propanoate], the IC50 under setting [1] lay within 100 to 1000 nM.

`Cc1ccc(OCC2CCN2C)cc1C(=O)NC1(c2cccc3c2OCCO3)CC1` (centres unmarked) [Compound 432, N-(1-(2,3-Dihydrobenzo[b][1,4]dioxin-5-yl)cyclopropyl)-2-methyl-5-((1-methylazetidin-2-yl)methoxy)benzamide]: the IC50 under setting [1] fell in the range of 100 to 1000 nM.

For the compound `Cc1ccc(OCC2CCN2C)cc1C(=O)NC1(c2cc(O)cc3ccccc23)CC1` (centres unmarked) [Compound 433, N-(1-(3-Hydroxynaphthalen-1-yl)cyclopropyl)-2-methyl-5-((1-methylazetidin-2-yl)methoxy)benzamide], the IC50 under setting [1] is under 100 nM.

Consider `COc1cc(C2(NC(=O)c3cc(OCCN(C)C)ccc3C)CC2)c2cccnc2c1` [Compound 434, 5-(2-(Dimethylamino)ethoxy)-N-(1-(7-methoxyquinolin-5-yl)cyclopropyl)-2-methylbenzamide], for which the IC50 under setting [1] is under 100 nM.

As to `Cc1ccc(COC2CNC2)cc1C(=O)NC1(c2cccc3ccccc23)CC1` [Compound 435, 5-((Azetidin-3-yloxy)methyl)-2-methyl-N-(1-(naphthalen-1-yl)cyclopropyl)benzamide], the IC50 under setting [1] lay within 100 to 1000 nM.

With `Cc1ccc(OCC2CCN2C)cc1C(=O)NC1(c2cccc3nc(Cl)ccc23)CC1` (centres unmarked) [Compound 436, N-(1-(2-Chloroquinolin-5-yl)cyclopropyl)-2-methyl-5-((1-methylazetidin-2-yl)methoxy)benzamide], the IC50 under setting [1] is under 100 nM.

As for `Cc1ccc(OC[C@H]2C[C@@H](F)CN2C)cc1C(=O)NC1(c2cccc3ccccc23)CC1` [Compound 437, 5-(((2R,4R)-4-Fluoro-1-methylpyrrolidin-2-yl)methoxy)-2-methyl-N-(1-(naphthalen-1-yl)cyclopropyl)benzamide], under setting [1], the IC50 is under 100 nM.

Turning to `Cc1ccc(OCCN(C)C)cc1C(=O)NC1(c2cc(C#N)cc3ccccc23)CC1` [Compound 443, N-(1-(3-Cyanonaphthalen-1-yl)cyclopropyl)-5-(2-(dimethylamino)ethoxy)-2-methylbenzamide], the IC50 under setting [1] was under 100 nM.

Regarding `Cc1ccc(OCC2CCN2C)cc1C(=O)NC1(c2cccc3ccc(F)cc23)CC1` (centres unmarked) [Compound 444, N-(1-(7-Fluoronaphthalen-1-yl)cyclopropyl)-2-methyl-5-((1-methylazetidin-2-yl)methoxy)benzamide], the IC50 under setting [2] was under 100 nM.

Regarding `COc1cc(C2(NC(=O)c3cc(OCC(C)N)ccc3C)CC2)c2ccccc2c1` (centres unmarked) [Compound 445, 5-(2-Aminopropoxy)-N-(1-(3-methoxynaphthalen-1-yl)cyclopropyl)-2-methylbenzamide], the IC50 under setting [1] was under 100 nM.

Take `Cc1ccc(OCC(C)N)cc1C(=O)NC1(c2cccc3cnccc23)CC1` (centres unmarked) [Compound 446, 5-(2-Aminopropoxy)-N-(1-(isoquinolin-5-yl)cyclopropyl)-2-methylbenzamide]: the IC50 under setting [2] is under 100 nM.
